Test results published in ChEMBL document CHEMBL1201862, “PubChem BioAssay data set” (2004).
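Method: 48-hour compound exposure of cells in 96-well plates, five concentrations, linear interpolation of endpoints. GI50 is the concentration that inhibits growth by half.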 The source made the active and inactive calls. Cut-off read from the data, not from the text of the source: active = GI50 up to about 1.1 µM and inactive = higher.

Legend:
Test in all cases: NCI tumour cell line growth inhibition, 48 h
[1] = system: IGROV-1
[2] = system: A549
[3] = system: SNB-19
[4] = system: HOP-62
[5] = system: 786-0
[6] = system: OVCAR-3
[7] = system: HCT-15
[8] = system: NCI-H226
[9] = system: NCI-H522
[10] = system: Malme-3M
[11] = system: RPMI-8226
[12] = system: DU-145
[13] = system: EKVX
[14] = system: SK-MEL-2
[15] = system: UO-31
[16] = system: NCI-H23
[17] = system: SNB-75
[18] = system: SK-MEL-5
[19] = system: A498
[20] = system: CAKI-1

| SMILES | GI50 [1] | GI50 [2] | GI50 [3] | GI50 [4] | GI50 [5] | GI50 [6] | GI50 [7] | GI50 [8] | GI50 [9] | GI50 [10] | GI50 [11] | GI50 [12] | GI50 [13] | GI50 [14] | GI50 [15] | GI50 [16] | GI50 [17] | GI50 [18] | GI50 [19] | GI50 [20] |
| --- | --- | --- | --- | --- | --- | --- | --- | --- | --- | --- | --- | --- | --- | --- | --- | --- | --- | --- | --- | --- |
| CCc1cc2c(c3c1CCCC3)CC1(Cc3ccc(C(=O)OC)cc3C1)C2 (centres undefined) | > 100 µM (inactive) | > 100 µM (inactive) | > 100 µM (inactive) | > 100 µM (inactive) | > 100 µM (inactive) | > 100 µM (inactive) | > 100 µM | > 100 µM (inactive) | > 100 µM (inactive) | > 100 µM (inactive) | 44.6 µM (inactive) | > 100 µM (inactive) | 64.4 µM (inactive) | 94.6 µM (inactive) | > 100 µM (inactive) | > 100 µM (inactive) | > 100 µM (inactive) | 71.8 µM (inactive) | – | – |
| Cc1ccc2nc(SCC(=O)N/N=C3\C(=O)Nc4ccccc43)n(-c3ccccc3)c(=O)c2c1 | – | 15.2 µM (inactive) | 17.5 µM (inactive) | 12.2 µM (inactive) | 16 µM (inactive) | 18.8 µM (inactive) | 17.2 µM | 16.2 µM (inactive) | – | 20.2 µM (inactive) | 17.6 µM (inactive) | 13.4 µM (inactive) | 15.6 µM (inactive) | 1.69 µM (inactive) | 2.02 µM (inactive) | 16.4 µM (inactive) | – | 15.7 µM (inactive) | 14.9 µM (inactive) | 18.6 µM (inactive) |
| O=C1NC(=O)C2C(=O)NC(=O)C1C2(c1ccccc1)c1ccc(Cl)cc1 (centres undefined) | > 100 µM (inactive) | > 100 µM (inactive) | > 100 µM (inactive) | > 100 µM (inactive) | > 100 µM (inactive) | > 100 µM (inactive) | > 100 µM | > 100 µM (inactive) | > 100 µM (inactive) | > 100 µM (inactive) | > 100 µM (inactive) | – | > 100 µM (inactive) | > 100 µM (inactive) | > 100 µM (inactive) | > 100 µM (inactive) | > 100 µM (inactive) | > 100 µM (inactive) | > 100 µM (inactive) | > 100 µM (inactive) |
| ClCCCN(CCCCl)c1ccc(/C=N/c2cccc(Cl)c2)cc1 | 29.8 µM (inactive) | 10.2 µM (inactive) | 30.1 µM (inactive) | 18.7 µM (inactive) | 18.3 µM (inactive) | 19.1 µM (inactive) | 18.1 µM | 2.03 µM (inactive) | 30.5 µM (inactive) | 6.22 µM (inactive) | 17.2 µM (inactive) | 2.56 µM (inactive) | 0.637 µM (active) | 26.7 µM (inactive) | 15.8 µM (inactive) | 15.5 µM (inactive) | 8.93 µM (inactive) | – | – | 0.652 µM (active) |
| CC1OC2OC3C(OCC(O)C3O)OC(=O)[C@]34CCC(C)(C)CC3C3=CCC5[C@@]6(C)C[C@H](O)[C@H](OC7OC(CO)C(O)C(O)C7OC7OCC(OC(=O)CC(C)(O)CC(=O)OC1C(O)C2O)C(O)C7O)[C@@](C)(CO)C6CC[C@@]5(C)[C@]3(C)CC4 (some centres undefined) | 5.71 µM (inactive) | 2.24 µM (inactive) | 6.22 µM (inactive) | 2.75 µM (inactive) | 12.1 µM (inactive) | 9.64 µM (inactive) | 7.98 µM | 14.9 µM (inactive) | 3.67 µM (inactive) | 3.68 µM (inactive) | 4.17 µM (inactive) | 3.97 µM (inactive) | – | 7.91 µM (inactive) | 6.03 µM (inactive) | 3.1 µM (inactive) | 5.64 µM (inactive) | 4.18 µM (inactive) | – | – |
| CCOC(=O)c1nc2ccccc2nc1Oc1ccc(OC)cc1 | > 100 µM (inactive) | > 100 µM (inactive) | > 100 µM (inactive) | > 100 µM (inactive) | > 100 µM (inactive) | > 100 µM (inactive) | > 100 µM | > 100 µM (inactive) | 29 µM (inactive) | > 100 µM (inactive) | > 100 µM (inactive) | > 100 µM (inactive) | > 100 µM (inactive) | > 100 µM (inactive) | > 100 µM (inactive) | – | – | > 100 µM (inactive) | > 100 µM (inactive) | – |
| COC(=O)C1Cc2c(OC)ccc(OC)c2C(O)C1C(=O)OC (centres undefined) | > 100 µM (inactive) | > 100 µM (inactive) | > 100 µM (inactive) | > 100 µM (inactive) | > 100 µM (inactive) | > 100 µM (inactive) | – | > 100 µM (inactive) | > 100 µM (inactive) | > 100 µM (inactive) | > 100 µM (inactive) | > 100 µM (inactive) | > 100 µM (inactive) | > 100 µM (inactive) | > 100 µM (inactive) | > 100 µM (inactive) | > 100 µM (inactive) | > 100 µM (inactive) | – | > 100 µM (inactive) |
| CCOC(=O)Cc1csc2[n+]1C(=O)/C(=C/c1cccc(OC)c1O)S2 | 45.4 µM (inactive) | 67.5 µM (inactive) | 50.9 µM (inactive) | > 100 µM (inactive) | 68.7 µM (inactive) | 38.2 µM (inactive) | 42.4 µM | > 100 µM (inactive) | – | – | – | 73.3 µM (inactive) | 74.1 µM (inactive) | 45 µM (inactive) | 28.7 µM (inactive) | 33.7 µM (inactive) | 18.7 µM (inactive) | 42.9 µM (inactive) | – | 59.2 µM (inactive) |
| COc1cc([N+](=O)[O-])c(S(=O)(=O)O)cc1-n1nc(-c2ccccc2)n[n+]1-c1cc(S(=O)(=O)[O-])c([N+](=O)[O-])cc1OC | > 100 µM (inactive) | > 100 µM (inactive) | > 100 µM (inactive) | > 100 µM (inactive) | > 100 µM (inactive) | > 100 µM (inactive) | > 100 µM | > 100 µM (inactive) | > 100 µM (inactive) | > 100 µM (inactive) | > 100 µM (inactive) | > 100 µM (inactive) | > 100 µM (inactive) | > 100 µM (inactive) | > 100 µM (inactive) | > 100 µM (inactive) | > 100 µM (inactive) | > 100 µM (inactive) | – | > 100 µM (inactive) |
| CC(C)=CCCC(C)[C@H]1CC(O)C2(C)C3=CCC4C(C)(C)[C@@H](O)CC[C@]4(C)C3=CC[C@]12C (some centres undefined) | 9.29 µM (inactive) | 2.66 µM (inactive) | 12.1 µM (inactive) | 5.83 µM (inactive) | 1.55 µM (inactive) | 3.2 µM (inactive) | 5.01 µM | 3.74 µM (inactive) | 0.401 µM (active) | 13.5 µM (inactive) | 3.27 µM (inactive) | – | 26 µM (inactive) | 23.3 µM (inactive) | 14.3 µM (inactive) | 3.72 µM (inactive) | 7.48 µM (inactive) | 14.3 µM (inactive) | 3.98 µM (inactive) | 8.36 µM (inactive) |
| Oc1ccc(-c2nc3ccc(Br)cc3s2)cc1 | 12.9 µM (inactive) | 21.7 µM (inactive) | 23.3 µM (inactive) | – | – | 14.3 µM (inactive) | 20.3 µM | 16.3 µM (inactive) | 10.7 µM (inactive) | 27 µM (inactive) | 15.1 µM (inactive) | 16.9 µM (inactive) | 13 µM (inactive) | 17.9 µM (inactive) | 14.5 µM (inactive) | 22.1 µM (inactive) | – | 13.5 µM (inactive) | – | 15.7 µM (inactive) |
